Results as given in PMC6520732, “Exploring the Antiangiogenic Potential of Solomonamide A Bioactive Precursors: In Vitro and In Vivo Evidences of the Inhibitory Activity of Solo F-OH During Angiogenesis” (Marine Drugs, 2019).
Converted amounts (≈) assume the structure as drawn. Read-outs that look alike come from different tables or passages of the source.

Columns and labels:
[1] = test system: BAEC endothelial tubular-like structures formation; format: cell-based, bovine; details: 5 h
Procedure: (§1) Cellular suspensions of 5 × 10^4 BAE cells in serum-free DMEM were added to a 96-well plate coated with 50 µL of Matrigel (10.5 mg/mL) in the presence of the indicated treatments for 5 h and photographed with a microscope camera Nikon DS-Ri2 coupled to a Nikon Eclipse Ti microscope (Nikon, Tokyo, Japan). Each concentration was tested in duplicate, and staurosporine 2 µM was used as a routine positive assay control. For the disruption assay, tubular-like structures were formed following the same protocol for the control conditions; then, the indicated concentrations of Solo F–OH were added. After a further incubation time of 90 min, cultures were observed and photographed. Combretastatin-4-phosphate (CA4P) was used as positive control of the disruptor antiangiogenic drug.

[2] = test system: already formed BAEC tubular-like structures; assay: Vascular disruption assay in vitro (already formed tubular-like structures on Matrigel); format: cell-based, bovine; details: 90 min; even at a concentration 10-fold higher than the MIC of the tube formation assay
Procedure: as §1

BAEC invasion = assay: Cell invasion assay on Matrigel-coated transwells; format: cell-based, bovine; details: 20% FBS in lower chamber, 16 h, read-out: Concentration reaching 50% of inhibition of BAEC invasion
Procedure: The invasion of endothelial cells was assayed by using 8.0-μm pore size transwell inserts coated with 100 µL of Matrigel 0.12 mg/mL solution. 10^5 BAE cells, in the absence or presence of the indicated concentrations of Solo F–OH, were added to the upper chamber of the transwells in the absence of serum, and the lower chamber was filled with 20% FBS DMEM. After 16 h of incubation, invading cells were fixed in 4% paraformaldehyde and stained with a 1% crystal violet solution in 2% ethanol. Cells were photographed with a microscope camera Nikon DS-Ri2 coupled to a Nikon Eclipse Ti microscope (Nikon, Tokyo, Japan).

MMP-2 [3] = assay: Gelatin zymography of conditioned media and cell extracts of treated BAEC; format: cell-based, bovine; details: 20 μM, 24 h
Procedure: (§2) Zymographies for matrix metalloproteinases MMP-2 and MMP-9 activities were performed in both conditioned media and cellular extracts of endothelial (BAEC) and tumor (HT1080) cell lines as described in Fajardo et al.. Briefly, cells seeded in six-well plates were incubated in serum-free culture medium with 0.1% BSA containing 200 KIU of aprotinin/mL and the correspondent treatment. After 24 h of incubation, conditioned media were collected, and cell lysates were obtained. Duplicates were used to determine the cell number, and samples were normalized for equal loading. In order to detect the gelatinolytic activity of MMP-9 and MMP-2, samples were loaded in non-reducing SDS/PAGE gels containing gelatin (1 mg/mL). After electrophoresis, gels were incubated overnight at 37 °C in a substrate buffer (50 mM of Tris/HCl, pH 7.4, supplemented with 1% Triton X-100, 5 mM CaCl2, and 0.02% Na3N) and stained with Coomassie blue R-250. The bands of gelatinase activity could be detected as non-stained bands in a dark, stained background. The size and intensity of the bands were quantified using Image J software.

MMP-2 [4] = assay: Gelatin zymography of conditioned media and cell extracts of treated HT1080; format: cell-based, human; details: treated HT1080, 24 h
Procedure: as §2

MMP-9 = assay: as above; format: cell-based, human; details: treated HT1080, 24 h
Procedure: as §2

MMP-2 [5] = target: T1, MMP-2 (Bos taurus, UniProt Q9GLE5); assay: In situ inhibition of MMP-2 gelatinase activity (compound in zymography incubation buffer); format: biochemical, bovine; details: 20 μM in substrate buffer; conditioned media of untreated BAEC
T1 construct: conditioned media and cellular extracts of endothelial (BAEC) and tumor (HT1080) cell lines; endogenous in cells; host or cells: BAEC (bovine aortic endothelial cells)
T1 sequence (Q9GLE5 111-661): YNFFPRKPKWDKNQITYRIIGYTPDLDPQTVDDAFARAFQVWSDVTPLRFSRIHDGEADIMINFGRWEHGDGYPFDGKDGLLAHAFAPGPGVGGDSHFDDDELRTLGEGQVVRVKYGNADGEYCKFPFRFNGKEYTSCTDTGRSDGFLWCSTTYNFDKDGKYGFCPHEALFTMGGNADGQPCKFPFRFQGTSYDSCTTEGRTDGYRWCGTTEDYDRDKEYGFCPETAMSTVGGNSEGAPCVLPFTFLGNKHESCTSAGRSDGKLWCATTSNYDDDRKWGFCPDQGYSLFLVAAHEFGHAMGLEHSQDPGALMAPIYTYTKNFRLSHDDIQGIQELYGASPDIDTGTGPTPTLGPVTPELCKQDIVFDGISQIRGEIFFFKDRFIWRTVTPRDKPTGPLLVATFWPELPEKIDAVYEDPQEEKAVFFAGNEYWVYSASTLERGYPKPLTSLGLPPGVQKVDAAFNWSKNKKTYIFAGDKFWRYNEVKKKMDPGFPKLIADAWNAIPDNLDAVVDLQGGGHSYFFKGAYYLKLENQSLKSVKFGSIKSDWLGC
Procedure: A variant of this method was used to obtain complementary information about the direct inhibition of the tested compound on MMP-2 gelatinase activity: samples of conditioned media of untreated BAEC were subjected to gelatin zymography and, after electrophoresis, 20 μM of Solo F–OH was added to the substrate buffer. Detection of the degrading bands and quantification were performed as described above.

[6] = test system: subintestinal vessels (SIVs) of zebrafish embryos; assay: FGF-2 induced angiogenesis zebrafish yolk membrane (ZFYM) assay; format: in vivo, zebrafish (Danio rerio); details: FGF-2 2 ng, 24 h
Akt = assay: Western blot of Akt phosphorylation in serum-induced BAEC; format: cell-based, bovine; details: 20 μM, 1 h treatment of starved BAEC, then 10% FBS for 10 min, two independent experiments
Procedure: (§3) BAE cells were starved in serum-free for 16 h. After one-hour treatment with Solo F-OH at 10 and 20 μM in the same conditions, cells were induced with 10% of FBS for 10 min. Protein lysates were obtained in radioimmunoprecipitation assay buffer (RIPA) (50 mM of Tris, pH 7.4, 150 mM of NaCl, 1% Triton X-100, 0.25% sodium deoxycholate, 1 mM of EDTA) containing phosphatase activity inhibitors (30 mM of sodium fluoride, 1 mM of sodium orthovanadate, 30 mM of β-glycerophosphate) and protease activity inhibitors (Complete mini, Roche, Mannheim, Germany). Protein concentration was determined using the Lowry method. Samples were subjected to SDS-PAGE electrophoresis and transferred to nitrocellulose membranes. […] Following one hour of incubation with horseradish peroxidase-conjugated secondary antibodies (MERK; goat anti-rabbit IgG HRP Linked Whole Antibody #NA934V; goat anti-mouse IgG (whole molecule)–Peroxidase antibody #A4416) at room temperature, immunoreactive bands were detected with SuperSignal West Pico Chemiluminescent Substrate (Pierce, Rockford, USA) and quantified by ImageJ software. The phosphorylated/total protein ratios were expressed as the percentage of the ratio in serum-stimulated samples in the absence of Solo F–OH.

ERK1/2 = assay: Western blot of ERK1/2 phosphorylation in serum-induced BAEC; format: cell-based, bovine; details: 20 μM, 1 h treatment of starved BAEC, then 10% FBS for 10 min, two independent experiments
Procedure: as §3

[7] = test system: bovine aortic endothelial cells (BAEC); details: 72 h of treatment, proliferating conditions; ref [17]; cited from earlier work
Text: Table 1 Summary of the results obtained in the primary in vitro screening assays for the complete series of synthetic solomonamide precursors. BAEC: bovine aortic endothelial cells, MIC: minimum inhibitory concentration. | column: IC50 ^1 (μM) in BAEC [17]

CAM of chicken embryos = details: 48 h; for Positive/Total: methylcellulose disc
Procedure: Fertilized chick eggs were incubated horizontally at 38 °C in a humidified incubator, windowed by day 3 of incubation, and processed by day 8. […] Then, methylcellulose discs were implanted onto the CAM, and the eggs were sealed with adhesive tape and returned to the incubator for 48 h. Negative controls were always made with DMSO mixed with the methylcellulose, and aeroplysinin-1 (3 nmol/CAM) was used as a routine positive control of antiangiogenic compound [47]. After the incubation, the CAM was examined under a stereomicroscope and photographed with a Nikon DS-Ri2 camera. The results were analyzed by two different observers, and the assay was scored positive when both of them reported a significant reduction of vessels in the treated area.

human recombinant VEGFR2 = human recombinant VEGFR2 (Homo sapiens, UniProt P35968); assay: In vitro measure of VEGFR2 TK activity (luminescent VEGFR2 (KDR) Kinase Assay Kit); details: 20 μM, 45 min at 30 °C; mean ± SD of four independent measures
Sequence of human recombinant VEGFR2 (P35968 20-1356): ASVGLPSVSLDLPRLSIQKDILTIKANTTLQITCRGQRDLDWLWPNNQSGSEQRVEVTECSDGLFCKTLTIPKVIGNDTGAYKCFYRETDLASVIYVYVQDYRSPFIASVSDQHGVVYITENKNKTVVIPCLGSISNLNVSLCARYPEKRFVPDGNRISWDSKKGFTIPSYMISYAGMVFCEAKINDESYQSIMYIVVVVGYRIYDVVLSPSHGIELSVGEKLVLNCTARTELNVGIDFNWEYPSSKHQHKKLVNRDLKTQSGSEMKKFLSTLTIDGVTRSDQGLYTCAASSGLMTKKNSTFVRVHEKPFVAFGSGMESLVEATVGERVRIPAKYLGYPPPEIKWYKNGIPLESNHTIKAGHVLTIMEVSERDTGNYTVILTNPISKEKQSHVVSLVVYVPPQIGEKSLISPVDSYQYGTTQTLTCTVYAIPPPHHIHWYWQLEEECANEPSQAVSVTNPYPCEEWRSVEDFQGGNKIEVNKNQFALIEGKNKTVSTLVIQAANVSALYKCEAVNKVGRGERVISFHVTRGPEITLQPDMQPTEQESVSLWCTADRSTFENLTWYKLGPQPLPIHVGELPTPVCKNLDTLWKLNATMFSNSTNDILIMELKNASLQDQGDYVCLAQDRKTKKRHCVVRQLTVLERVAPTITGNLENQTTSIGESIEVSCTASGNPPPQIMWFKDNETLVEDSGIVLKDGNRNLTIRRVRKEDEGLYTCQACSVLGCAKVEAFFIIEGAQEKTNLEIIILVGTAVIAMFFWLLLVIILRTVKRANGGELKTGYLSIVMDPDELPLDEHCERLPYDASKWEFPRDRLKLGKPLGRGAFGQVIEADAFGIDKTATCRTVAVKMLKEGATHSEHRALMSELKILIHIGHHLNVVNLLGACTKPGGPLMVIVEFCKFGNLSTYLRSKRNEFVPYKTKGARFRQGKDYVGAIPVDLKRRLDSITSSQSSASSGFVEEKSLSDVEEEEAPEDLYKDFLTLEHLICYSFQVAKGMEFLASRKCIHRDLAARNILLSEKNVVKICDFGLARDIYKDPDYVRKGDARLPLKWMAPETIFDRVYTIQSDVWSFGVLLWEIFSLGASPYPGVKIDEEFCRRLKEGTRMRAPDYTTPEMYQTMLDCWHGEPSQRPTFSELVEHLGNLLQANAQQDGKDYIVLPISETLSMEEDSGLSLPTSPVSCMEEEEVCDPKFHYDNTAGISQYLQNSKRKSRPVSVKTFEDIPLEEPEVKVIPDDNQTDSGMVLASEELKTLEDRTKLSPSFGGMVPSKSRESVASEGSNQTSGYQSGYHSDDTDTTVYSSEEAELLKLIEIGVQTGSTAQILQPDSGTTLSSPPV

C[C@@H]1C(=O)NCC(=O)N[C@H](C)C(=O)Nc2cc(OCc3ccccc3)ccc2/C=C/C[C@@H]1O [Solo F–OH]
MIC Tubular Like-Structures Formation [1]: 1 µM (≈ 0.452 µg/mL)
Disruption of endothelial tubular-like structures already formed on Matrigel [2]: not able to disrupt
IC50 (BAEC invasion): ~5 µM
Presence of MMP-2 in cell extracts and conditioned media of BAEC (MMP-2 [3]): reduced
MMP-2 activity in HT1080 cells (MMP-2 [4]): decreased
MMP-9 activity in HT1080 cells (MMP-9): decreased
MMP-2 degradation bands with compound in incubation buffer (MMP-2 [5]): unaffected
Score + / Total (mild response), % ([6]; compound 5 µM): 36.8%
Score + / Total (mild response), embryos ([6]; compound 5 µM): 7/19
Score ++ / Total (strong response), % ([6]; compound 5 µM): 15.8%
Score ++ / Total (strong response), embryos ([6]; compound 5 µM): 3/19
Score – / Total (no response to FGF-2), % ([6]; compound 5 µM): 47.4%
Score – / Total (no response to FGF-2), embryos ([6]; compound 5 µM): 9/19
Score + / Total (mild response), % ([6]; compound 10 µM): 39.1%
Score + / Total (mild response), embryos ([6]; compound 10 µM): 9/23
Score ++ / Total (strong response), % ([6]; compound 10 µM): 4.3%
Score ++ / Total (strong response), embryos ([6]; compound 10 µM): 1/23
Score – / Total (no response to FGF-2), % ([6]; compound 10 µM): 56.5%
Score – / Total (no response to FGF-2), embryos ([6]; compound 10 µM): 13/23
Phosphorylation of Akt in the presence of serum (Akt): substantially reduced
Phosphorylation of ERK1/2 in the presence of serum (ERK1/2): substantially reduced
IC50 [7]: 18.1 ± 2.2 µM
Positive/Total (CAM of chicken embryos; 0.1 nmol/CAM): 1/7
Positive/Total (CAM of chicken embryos; 0.5 nmol/CAM): 2/7
Positive/Total (CAM of chicken embryos; 1 nmol/CAM): 6/9
Positive/Total (CAM of chicken embryos; 5 nmol/CAM): 9/12
Positive/Total (CAM of chicken embryos; 10 nmol/CAM): 10/10
Dose reaching 50% of inhibition of CAM neovascularization (CAM of chicken embryos; CAM assay): lower than 1 nmol/CAM
Remaining VEGFR2 kinase activity relative to vehicle control (DMSO) (human recombinant VEGFR2): 84.5 ± 3.3%

C[C@H]1NC(=O)CNC(=O)CC/C=C/Cc2ccccc2NC1=O [Solo-1]
MIC Tubular Like-Structures Formation [1]: >50 µM
IC50 [7]: > 100 µM

C[C@H]1NC(=O)CNC(=O)CC/C=C/Cc2ccc(OCc3ccccc3)cc2NC1=O [Solo-2]
MIC Tubular Like-Structures Formation [1]: >50 µM
IC50 [7]: 43.8 ± 1.2 µM

C[C@H]1NC(=O)CNC(=O)CCC/C=C/c2ccc(OCc3ccccc3)cc2NC1=O [Solo-4]
MIC Tubular Like-Structures Formation [1]: 50 µM (≈ 21.1 µg/mL)
IC50 [7]: 69.6 ± 12.5 µM

C[C@H]1NC(=O)CNC(=O)CC/C=C/Cc2ccc(O)cc2NC1=O [Solo-5]
MIC Tubular Like-Structures Formation [1]: >50 µM
IC50 [7]: > 100 µM

C[C@H]1NC(=O)CNC(=O)CC/C=C/C(O)c2ccccc2NC1=O (stereo partly drawn) [Solo-6]
MIC Tubular Like-Structures Formation [1]: >50 µM
IC50 [7]: > 100 µM
